From patent publication US8013156B2 (Exelixis, Inc., priority 2003, dated 2011)

Target: Tie-2 (Homo sapiens, UniProt Q02763)
Experiment: Tie-2 tyrosine kinase activity assay (luciferase/luciferin ATP consumption with pEY substrate, or 33P-ATP incorporation)
Type: biochemical
Conditions: human enzyme Tie-2
Outline: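 Values are IC50 categories (A <50 nM to D ≥10,000 nM), with Ki obtainable by fitting rates to a tight-binding model. Assay formats: 33P-ATP phosphate transfer to adsorbed generic substrate counted by scintillation, or luciferase-detected ATP depletion using pEY.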

Tie-2, sequence (Q02763 23-1124): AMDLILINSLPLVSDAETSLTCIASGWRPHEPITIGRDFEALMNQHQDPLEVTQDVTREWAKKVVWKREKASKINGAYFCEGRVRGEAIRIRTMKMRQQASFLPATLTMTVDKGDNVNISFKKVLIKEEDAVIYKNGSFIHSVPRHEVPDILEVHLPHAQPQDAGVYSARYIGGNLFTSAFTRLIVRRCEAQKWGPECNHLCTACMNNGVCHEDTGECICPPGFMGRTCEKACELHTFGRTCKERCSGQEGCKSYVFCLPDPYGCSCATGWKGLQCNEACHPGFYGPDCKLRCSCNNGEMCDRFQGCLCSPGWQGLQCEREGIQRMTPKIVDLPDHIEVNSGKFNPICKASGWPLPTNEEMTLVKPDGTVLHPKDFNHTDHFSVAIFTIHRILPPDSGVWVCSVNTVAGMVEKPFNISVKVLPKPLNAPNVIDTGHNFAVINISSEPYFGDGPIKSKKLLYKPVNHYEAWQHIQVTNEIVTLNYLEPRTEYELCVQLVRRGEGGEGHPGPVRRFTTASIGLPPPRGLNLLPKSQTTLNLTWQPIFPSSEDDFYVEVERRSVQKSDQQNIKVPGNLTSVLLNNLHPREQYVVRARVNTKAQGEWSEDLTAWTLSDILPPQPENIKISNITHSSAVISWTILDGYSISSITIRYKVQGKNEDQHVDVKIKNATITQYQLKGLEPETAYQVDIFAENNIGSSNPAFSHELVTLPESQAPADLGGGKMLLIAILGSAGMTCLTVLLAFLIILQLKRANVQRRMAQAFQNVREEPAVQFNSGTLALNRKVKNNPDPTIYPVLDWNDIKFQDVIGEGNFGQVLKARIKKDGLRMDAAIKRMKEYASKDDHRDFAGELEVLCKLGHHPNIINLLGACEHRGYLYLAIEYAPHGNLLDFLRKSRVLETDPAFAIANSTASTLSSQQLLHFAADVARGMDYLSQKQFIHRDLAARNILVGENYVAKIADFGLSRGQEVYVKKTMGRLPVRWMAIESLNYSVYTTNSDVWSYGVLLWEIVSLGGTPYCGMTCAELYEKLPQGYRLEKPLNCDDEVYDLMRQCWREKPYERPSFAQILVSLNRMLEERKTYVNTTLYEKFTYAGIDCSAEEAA

Row | SMILES | IC50 [nM]
1 | O=C(Nc1cc(C(F)(F)F)cc(C(F)(F)F)c1)N1CCN(c2nccnc2OCc2ccncc2)CC1 [Example 38, N-[3,5-bis(trifluoromethyl)phenyl]-4-{3-[(pyridin-4-ylmethyl)oxy]pyrazin-2-yl}piperazine-1-carboxamide] | < 50
2 | CCc1cccc(NC(=O)N2CCN(c3nc4ccccc4nc3OCc3ccncc3)CC2C)c1 (centres unmarked) [Example 95, N-(3-ethylphenyl)-2-methyl-4-{3-[(pyridin-4-ylmethyl)oxy]quinoxalin-2-yl}piperazine-1-carboxamide] | 50 to 1000
3 | CCCCOc1nccc(COc2nsnc2N2CCN(C(=O)Nc3cc(C(F)(F)F)cc(C(F)(F)F)c3)CC2)n1 [Example 137, N-[3,5-bis(trifluoromethyl)phenyl]-4-[4-({[2-(butyloxy)pyrimidin-4-yl]methyl}oxy)-1,2,5-thiadiazol-3-yl]piperazine-1-carboxamide] | ≥ 10000

The remaining lines, values ahead:

Row | IC50 [nM] | SMILES
4 | 1000 to 10000 | Nc1nccc(COc2cccnc2N2CCN(CC(=O)Nc3cc(C(F)(F)F)cc(C(F)(F)F)c3)CC2)n1 [Example 177, 2-[4-(3-{[(2-aminopyrimidin-4-yl)methyl]oxy}pyridin-2-yl)piperazin-1-yl]-N-[3,5-bis(trifluoromethyl)phenyl]acetamide]
5 | < 50 | CCc1cc(Cl)cc(NC(=O)N2CCN(c3nsnc3OCc3ccnc(N)n3)CC2)c1 [Example 221, 4-(4-{[(2-aminopyrimidin-4-yl)methyl]oxy}-1,2,5-thiadiazol-3-yl)-N-(3-chloro-5-ethylphenyl)piperazine-1-carboxamide]
